US8017649B2, “Flavonoid compounds and uses thereof” (Howard Florey Institute of Experimental Physiology and …, priority 2005, dated 2011)
“Also recorded” adds a separate entry of the source.

Experiments:
[1] = test system: rat aorta precontracted with PE; assay: Direct relaxation of PE/U46619-precontracted rat aortic rings; format: cell-based
Method: Following testing of endothelial integrity, rings were repeatedly washed and re-equilibrated for 30 minutes before the addition of PE (10^−8−2×10^−7 M) and 9,11-dideoxy-9α, 11α-epoxymethano-prostaglandin F2α (U46619, 10^−9-10^−8 M) to produce an active force in the range of 40-60% of KPSS-induced contraction. The level of precontraction was matched between the various groups by adjusting the concentrations of PE and U46619. Cumulative concentration-response curves in the range 10^−8-10^−4 M were conducted for 3′,4′-dihydroxyflavonol, 3-hydroxyflavone-3-hemiadipate, 3′,4′-dihydroxy-3-hemiadipate, 3-hydroxyflavone-3-phosphate.
Experiments were conducted in the presence of an esterase, butyryl cholinesterase (BuCHE, 1000 U/L) for the hemiadipate derivates and a phosphatase 1000 U/L) in the case of the phosphate derivatives.
Following testing of endothelial integrity, rings were repeatedly washed and re-equilibrated for 30 minutes before the addition of PE (10^−8−2×10^−7 M) and 9,11-dideoxy-9α, 11α-epoxymethano-prostaglandin F2α (U46619, 10^−9-10^−7 M) to produce an active force in the range of 40-60% of KPSS-induced contraction. Cumulative concentration-response curves in the range 10^−7-10^−4 M were conducted for vehicle, 3′-hydroxyflavonol, F3HA, DiOHF3HA, F3P. Experiments were conducted in the presence and absence of 1000 U/L BuCHE to cleave the adipate in F3HA and DiOHF3HA. In experiments using F3P 1000 U/L phosphatase was used in some experiments to cleave the phosphate.

[2] = test system: superoxide anions generated in rat aorta; assay: Superoxide anion production in rat isolated aortic segments (lucigenin chemiluminescence, NADPH); format: cell-based
Method: Superoxide anion production in rat isolated aortic segments was determined using lucigenin chemiluminescence. Aortic rings were prepared as described above and then placed in ice-cold Krebs-(N-[2-Hydroxyethyl]piperazine-N′-[2-ethanesulfonic acid] (HEPES buffer) (composition (mM); NaCl 99.0, KCl 4.7, KH2PO4 1.0, MgSO4·7H2O 1.2, D-glucose 11.0, NaHCO3 25.0, CaCl2·2H2O 2.5, Na-HEPES 20.0). Aortic rings were pre-incubated for 45 minutes at 37° C. with a pH 7.4, in Krebs-HEPES buffer containing diethylthiocarbamic acid (DETCA, 10^−3 M) to inactivate superoxide dismutase and β-nicotinamide adenine dinucleotide phosphate (NADPH, 10^−4 M) as a substrate for NADPH oxidase and either 3′,4′-dihydroxyflavonol (10^−4 M) as a positive control, vehicle, 3-hydroxyflavone-3-hemiadipate, 3′,4′-dihydroxy-3-hemiadipate, 3-hydroxyflavone-3-phosphate (10^−8-10^−4 M). Background photon emission was measured for 12 cycles in a 96-well Optiplate containing 0.3 ml per well of Krebs-HEPES buffer together with lucigenin (5×10^−5 M) and vehicle or flavonoid (10^−8-10^−4 M). Each cycle was counted every one minute. After background reading was completed the incubated aortic rings were transferred to the appropriate wells and photon emission was recounted as described above. The tissue was then placed in a 65° C. oven for 48 hours to allow superoxide production to be normalised to dry tissue weight.
The effects of vehicle, 3′,4′-dihydroxyflavone-3-hemiadipate (21) (DiOHF3HA, 10^−8 M-10^−4 M) and DiOHF (10^−4 M) in the presence and absence of Butyryl cholinesterase (BuCHE), 100, 300 and 1000 U/L) on the level of superoxide anions generated in rat isolated aortic segments in the presence of NADPH was expressed as a percentage of control. The method used was as described above except for the addition of the butyryl cholinesterase.
The effect of vehicle, 3-hydroxyflavone-3-phosphate (10^−8 to 10^−4 M) in the presence or absence of phosphatase (1000 U/L) on the level of superoxide anions generated in rat aorta in the presence of NADPH expressed as a percentage of control was determined as described above for the 3′,4′-dihydroxyflavone-3-hemiadipate.

[3] = test system: myocardial ischaemia and reperfusion; conditions: Wang et al., British Journal of Pharmacology (2004) 142, 443-452; cited from earlier work

Compound	direct relaxing effect on precontracted vessels ([1]; DiOHF3HA plus 1000 U/L BuCHE)	direct relaxing effect on precontracted vessels ([1]; substance alone)	effect on superoxide generation ([2]; in the presence of cleaving enzyme (BuCHE for hemiadipates, phosphatase for phosphate, 1000 U/L))	effect on superoxide generation ([2]; substance alone, no added esterase/phosphatase, up to 10^−4 M, NADPH)	infarct and injury associated with myocardial ischaemia and reperfusion [3]
O=C(O)CCCCC(=O)Oc1c(-c2ccc(O)c(O)c2)oc2ccccc2c1=O [DiOHF3HA, 3′,4′-dihydroxyflavone-3-hemiadipate]	marked effect on vascular tone; also recorded: direct relaxation of pre-contracted rat aortic rings only in the presence of the esterase; also recorded: cause direct relaxation of rat aortic rings	no effect on PE precontracted vessels	concentration dependent inhibition of superoxide levels; also recorded: concentration dependent inhibitory effect; also recorded: inhibit superoxide levels produced by rat aorta	no inhibitory effect on superoxide generation; also recorded: no antioxidant or vascular activity	
O=c1c(O)c(-c2ccc(O)c(O)c2)oc2ccccc12 [DiOHF, 3′,4′-Dihydroxyflavonol, reference compound]					reduce Infarct and injury associated with myocardial ischaemia and reperfusion
